# Assay results from patent US7402314B2, “In vivo activation of tumor-specific cytotoxic T cells” (The Scripps Research Institute, priority 1995, dated 2008).
# Experiments:
# A2.1/K^b-Tg mice = test: Peptide priming of A2.1/K^b-Tg mice, lytic activity of peptide-specific CTL; type: in vivo; set-up: Lytic Activity by Peptide-Specific CTL After Priming of A2.1/K^b-Tg Mice [Specific ^51Cr release (%)]: concentration or dose not given beside the values
# [1] = test system: peptide-pulsed T2 targets; type: cell-based, human
# HLA-A2.1 = HLA-A2.1 (Homo sapiens, UniProt P04439, D140Y/D185E/D98H/E176V/E277Q/G131W/G231S/I119V/I121R/I166T/I218V/L300P/L318F/N151K/N90K/P208A/P217A/Q86G/Q94H/R138H/R169H/T345S); test: Competition assay of peptide binding to HLA-A2.1 (inhibition of M1 58-66 binding, clone 12 lysis of EA2 targets)
# OVCAR-5 = test: Cytotoxicity assay, killing of tumors (Table 7); type: cell-based, human; settings: OVCAR-5, Ovarian, A2 +, Her-2 +
# Experimental: (§1) One hundred and six (106) target cells were incubated at 37° C. with […] of sodium ^51Cr chromate for 90 minutes in the presence or absence of specific peptide. Cells were washed three times and resuspended in 5% RPMI. For the assay, 104 ^51Cr-labeled target cells were incubated with different concentrations of effector cells in a final volume of […] in U-bottomed 96-well plates. Supernatants were removed after 4-7 hrs at 37° C., and the percent specific lysis was determined by the following formula: […]
# (§2) Tumor cells were preincubated for 24 hours prior to the assay in media supplemented with γ-interferon (γ-IFN, 20 ng/ml) plus tumor necrosis factor-α (TNF-α, 3 ng/ml). It is known that such pretreatment of tumor cells increases the expression of MHC I and adhesion molecules such as ICAM I on the surface of the cell thus enhancing their sensitivity to lysis by CTL. (See, e.g., Fisk, et al., Lympho. & Cylokine Res. 13: 125-131 (1994); Fady, et al., Cancer Immunol. Immunother. 37: 329-336 (1993).)
# MDA.MB435 = test: Cytotoxicity assay, killing of tumors (Table 7); type: cell-based, human; settings: MDA.MB435, Breast, A2 −, Her-2 +
# Experimental: as §1, §2
# LG-2 = test: Cytotoxicity assay, killing of tumors (Table 7); type: cell-based, human; settings: LG-2, EBV-trans., A2 +, Her-2 −
# Experimental: as §1, §2
# U87G = test: Cytotoxicity assay, killing of tumors (Table 7); type: cell-based, human; settings: U87G, Glioblastoma, A2 +, Her-2 −
# Experimental: as §1, §2
# T98G = test: Cytotoxicity assay, killing of tumors (Table 7); type: cell-based, human; settings: T98G, Glioblastoma, A2 +, Her-2 +
# Experimental: as §1, §2
# SW480 = test: Cytotoxicity assay, killing of tumors (Table 7); type: cell-based, human; settings: SW480, Colon, A2 +, Her-2 +
# Experimental: as §1, §2
# MALME-3M = test: Cytotoxicity assay, killing of tumors (Table 7); type: cell-based, human; settings: MALME-3M, Melanoma, A2 +, Her-2 +
# Experimental: as §1, §2
# SKMEL-5 = test: Cytotoxicity assay, killing of tumors (Table 7); type: cell-based, human; settings: SKMEL-5, Melanoma, A2 +, Her-2 +
# Experimental: as §1, §2
# JY = test: Cytotoxicity assay, killing of tumors (Table 7); type: cell-based, human; settings: JY, Lymphoma, A2 +, Her-2 −
# Experimental: as §1, §2
# MDA.M8231 = test: Cytotoxicity assay, killing of tumors (Table 7); type: cell-based, human; settings: MDA.M8231, Breast, A2 +
# Experimental: as §1, §2
# SV80 = test: Cytotoxicity assay, killing of tumors (Table 7); type: cell-based, human; settings: SV80, Fibroblast, A2 +, Her-2 −
# Experimental: as §1, §2
# ST486 = test: Cytotoxicity assay, killing of tumors (Table 7); type: cell-based, human; settings: ST486, Lymphoma, A2 +, Her-2 −
# Experimental: as §1, §2
# U2-OS = test: Cytotoxicity assay, killing of tumors (Table 7); type: cell-based, human; settings: U2-OS, Osteosarcoma, A2 +, Her-2 +
# Experimental: as §1, §2
# CASKI = test: Cytotoxicity assay, killing of tumors (Table 7); type: cell-based, human; settings: CASKI, Cervix, A2 +, Her-2 +
# Experimental: as §1, §2
# MCF-7 = test: Cytotoxicity assay, killing of tumors (Table 7); type: cell-based, human; settings: MCF-7, Breast, A2 +, Her-2 +
# Experimental: as §1, §2
# BT549 = test: Cytotoxicity assay, killing of tumors (Table 7); type: cell-based, human; settings: BT549, Breast, A2 +
# Experimental: as §1, §2
# SAOS.175 = test: Cytotoxicity assay, killing of tumors (Table 7); type: cell-based, human; settings: SAOS.175, Osteosarcoma, A2 +, Her-2 +
# Experimental: as §1, §2
# NCI.H1355 = test: Cytotoxicity assay, killing of tumors (Table 7); type: cell-based, human; settings: NCI.H1355, Lung, A2 +
# Experimental: as §1, §2
# Hep-G2 = test: Cytotoxicity assay, killing of tumors (Table 7); type: cell-based, human; settings: Hep-G2, Hepatoma, A2 +, Her-2 +
# Experimental: as §1, §2
# [2] = + CYT (γ-IFN plus TNF-α, 24 hours)
sequence,measurement,setting,value
STPPPGTRV [hu-wt-p53 149-157],Lytic Activity by Peptide-Specific CTL After Priming of A2.1/K^b-Tg Mice [Specific ^51Cr release (%)],"A2.1/K^b-Tg mice; E:T ratio of 60:1, peptide-pulsed T2A2/K^b targets, highest of at least three individual mice",91%
same,A2.1/K^b-restricted peptide-specific CTL response of A2.1/K^b-Tg mice (in words),"A2.1/K^b-Tg mice; mouse, in vivo",detectable
same,peptide concentration required for equivalent lysis of T2 targets by A2 vs. A2.1/K^b derived CTL (fold less),[1],3 fold
same,A2.1-binding activity / affinity for the presenting MHC class I molecule (in words),HLA-A2.1,intermediate affinity
VMAGVGSPYV [Peptide H7],Killing of Tumors Expressing Her-2/neu (percent specific lysis),OVCAR-5; [2],23%
same,Killing of Tumors Expressing Her-2/neu (percent specific lysis),OVCAR-5; no cytokines,13%
same,Killing of Tumors Expressing Her-2/neu (percent specific lysis),MDA.MB435; [2],1%
same,Killing of Tumors Expressing Her-2/neu (percent specific lysis),MDA.MB435; no cytokines,1%
same,Killing of Tumors Expressing Her-2/neu (percent specific lysis),LG-2; [2],3%
same,Killing of Tumors Expressing Her-2/neu (percent specific lysis),LG-2; no cytokines,1%
same,Killing of Tumors Expressing Her-2/neu (percent specific lysis),U87G; [2],1%
same,Killing of Tumors Expressing Her-2/neu (percent specific lysis),U87G; no cytokines,1%
same,Killing of Tumors Expressing Her-2/neu (percent specific lysis),T98G; [2],93%
same,Killing of Tumors Expressing Her-2/neu (percent specific lysis),T98G; no cytokines,29%
same,Killing of Tumors Expressing Her-2/neu (percent specific lysis),SW480; [2],17%
same,Killing of Tumors Expressing Her-2/neu (percent specific lysis),SW480; no cytokines,2%
same,Killing of Tumors Expressing Her-2/neu (percent specific lysis),MALME-3M; [2],14%
same,Killing of Tumors Expressing Her-2/neu (percent specific lysis),MALME-3M; no cytokines,4%
same,Killing of Tumors Expressing Her-2/neu (percent specific lysis),SKMEL-5; [2],40%
same,Killing of Tumors Expressing Her-2/neu (percent specific lysis),SKMEL-5; no cytokines,16%
same,Killing of Tumors Expressing Her-2/neu (percent specific lysis),JY; [2],2%
same,Killing of Tumors Expressing Her-2/neu (percent specific lysis),JY; no cytokines,4%
same,Killing of Tumors Expressing Her-2/neu (percent specific lysis),MDA.M8231; [2],89%
same,Killing of Tumors Expressing Her-2/neu (percent specific lysis),MDA.M8231; no cytokines,26%
same,Killing of Tumors Expressing Her-2/neu (percent specific lysis),SV80; [2],2%
same,Killing of Tumors Expressing Her-2/neu (percent specific lysis),SV80; no cytokines,2%
same,Killing of Tumors Expressing Her-2/neu (percent specific lysis),ST486; [2],8%
same,Killing of Tumors Expressing Her-2/neu (percent specific lysis),ST486; no cytokines,5%
same,Killing of Tumors Expressing Her-2/neu (percent specific lysis),U2-OS; [2],62%
same,Killing of Tumors Expressing Her-2/neu (percent specific lysis),U2-OS; no cytokines,30%
same,Killing of Tumors Expressing Her-2/neu (percent specific lysis),CASKI; [2],20%
same,Killing of Tumors Expressing Her-2/neu (percent specific lysis),CASKI; no cytokines,9%
same,Killing of Tumors Expressing Her-2/neu (percent specific lysis),MCF-7; [2],40%
same,Killing of Tumors Expressing Her-2/neu (percent specific lysis),MCF-7; no cytokines,7%
same,Killing of Tumors Expressing Her-2/neu (percent specific lysis),BT549; [2],36%
same,Killing of Tumors Expressing Her-2/neu (percent specific lysis),BT549; no cytokines,2%
same,Killing of Tumors Expressing Her-2/neu (percent specific lysis),SAOS.175; [2],35%
same,Killing of Tumors Expressing Her-2/neu (percent specific lysis),SAOS.175; no cytokines,27%
same,Killing of Tumors Expressing Her-2/neu (percent specific lysis),NCI.H1355; [2],62%
same,Killing of Tumors Expressing Her-2/neu (percent specific lysis),NCI.H1355; no cytokines,13%
same,Killing of Tumors Expressing Her-2/neu (percent specific lysis),Hep-G2; [2],29%
same,Killing of Tumors Expressing Her-2/neu (percent specific lysis),Hep-G2; no cytokines,4%
